Test results reported in US6855730B2, “3-methylidenyl-2-indolinone modulators of protein kinase” (Sugen, Inc., priority 1998, dated 2005).
Like-named read-outs stand apart in the source and are kept apart here.

How the values were obtained:
[1] = molecular target: T1, src protein kinase (Gallus gallus, UniProt P00523); experiment: Biochemical SRC assay (phosphorylation of biotinylated peptide); conditions: read-out: bio src IC50
T1 construct: host or cells: Schizosaccharomyces pombe SP200

[2] = molecular target: T2, human flk-1 (Homo sapiens, UniProt P35968); experiment: Biochemical FLK-1 assay (flk-1 autophosphorylation ELISA); conditions: read-out: bio FLK1 IC50 (μM) % if inhibition at 100
T2 construct: host or cells: Flk-1/NIH cells (NIH fibroblasts)
In short: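 Flk-1 from lysates of NIH fibroblasts over-expressing human flk-1 (50 μg/well) was captured on anti-flk-1 antibody-coated plates, then autophosphorylated with test compounds and ATP (0.3 mM working solution) for 60 min at room temperature before EDTA stop. Phosphotyrosine was detected with biotinylated 4G10, avidin-biotin peroxidase and TMB at 450 nm.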

[3] = molecular target: T3, 3T3 cell line genetically engineered to express human PDGF-R (Homo sapiens, UniProt P09619); experiment: PDGF-induced BrdU incorporation assay; format: cell-based
T3 construct: expressed in transfected cells; host or cells: 3T3

[4] = test system: HUV-EC-C cells (aFGF, FGF-R); experiment: cells; format: cell-based; conditions: Homo sapiens, HUVEC, read-out: HUVEC aFGF IC50
[5] = read-out: PDGF-Induced BrdU Incorp. IC50

T2 sequence (P35968 20-1356): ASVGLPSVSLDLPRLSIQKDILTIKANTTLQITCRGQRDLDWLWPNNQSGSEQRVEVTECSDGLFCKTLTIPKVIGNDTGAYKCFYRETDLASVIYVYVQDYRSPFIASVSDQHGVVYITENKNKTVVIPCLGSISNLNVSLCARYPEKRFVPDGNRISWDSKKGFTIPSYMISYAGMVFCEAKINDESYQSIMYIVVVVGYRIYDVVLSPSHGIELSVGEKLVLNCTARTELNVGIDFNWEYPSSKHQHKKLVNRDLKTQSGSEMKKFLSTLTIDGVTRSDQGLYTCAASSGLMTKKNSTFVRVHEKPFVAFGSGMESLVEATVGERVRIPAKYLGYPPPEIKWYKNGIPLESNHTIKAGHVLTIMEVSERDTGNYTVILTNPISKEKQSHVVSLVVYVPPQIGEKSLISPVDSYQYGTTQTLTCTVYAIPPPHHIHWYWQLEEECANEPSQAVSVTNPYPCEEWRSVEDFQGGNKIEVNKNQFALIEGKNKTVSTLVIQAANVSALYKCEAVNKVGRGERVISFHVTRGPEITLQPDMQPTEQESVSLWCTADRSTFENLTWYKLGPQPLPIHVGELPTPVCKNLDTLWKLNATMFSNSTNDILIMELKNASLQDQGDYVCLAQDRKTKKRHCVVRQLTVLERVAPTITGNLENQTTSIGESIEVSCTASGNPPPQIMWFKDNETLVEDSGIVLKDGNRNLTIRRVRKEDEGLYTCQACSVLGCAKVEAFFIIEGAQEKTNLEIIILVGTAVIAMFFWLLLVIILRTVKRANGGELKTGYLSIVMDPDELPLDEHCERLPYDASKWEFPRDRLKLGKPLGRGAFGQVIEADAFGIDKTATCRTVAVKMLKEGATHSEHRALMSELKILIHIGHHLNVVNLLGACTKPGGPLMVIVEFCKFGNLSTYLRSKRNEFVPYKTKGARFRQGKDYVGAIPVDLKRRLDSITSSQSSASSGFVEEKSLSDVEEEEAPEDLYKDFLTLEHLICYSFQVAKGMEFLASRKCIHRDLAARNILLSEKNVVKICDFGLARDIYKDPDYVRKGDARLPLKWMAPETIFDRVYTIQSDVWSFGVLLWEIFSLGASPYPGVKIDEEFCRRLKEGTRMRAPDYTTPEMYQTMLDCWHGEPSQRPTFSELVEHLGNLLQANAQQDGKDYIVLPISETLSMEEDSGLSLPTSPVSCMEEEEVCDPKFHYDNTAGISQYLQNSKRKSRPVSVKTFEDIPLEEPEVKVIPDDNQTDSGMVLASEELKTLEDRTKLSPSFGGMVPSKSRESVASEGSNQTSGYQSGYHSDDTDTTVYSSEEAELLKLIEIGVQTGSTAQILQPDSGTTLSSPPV

Row | IC50 [1] [nM] | IC50 [2] [µM] | IC50 [3, 5] [nM] | IC50 ([4]; aFGF-stimulated) [nM] | SMILES | IC50 [3] [nM] | IC50 [4] [nM]
1 | 12000 | 0.02 | 1100 | 250 | O=C(O)CCc1c(/C=C2\C(=O)Nc3ccc(Cl)cc32)[nH]c2c1CCCC2 [Example 191, 3-[2-(5-Chloro-2-oxo-1,2-dihydroindol-3-ylidenemethyl)-4,5,6,7-tetrahydro-1H-indol-3-yl]-propionic acid] | – | –
2 | 11300 | 0.89 | 3000 | 1600 | COc1ccc2c(c1)NC(=O)/C2=C\c1[nH]c2c(c1CCC(=O)O)CCCC2 [Example 196, 3-[2-(6-Methoxy-2-oxo-1,2-dihydroindol-3-ylidenemethyl)-4,5,6,7-tetrahydro-1H-indol-3-yl]-propionic acid] | – | –
3 | – | 2.1 | 4900 | 202000 | CN(C)C(=O)CCc1c(/C=C2\C(=O)Nc3ccccc32)[nH]c2c1CCCC2 [Example 197, N,N-Dimethyl-3-[2-(2-oxo-1,2-dihydroindol-3-ylidenemethyl)-4,5,6,7-tetrahydro-1H-indol-3-yl]-propionamide] | – | –
4 | – | 0.13 | 3500 | 100 | NC(=O)CCc1c(/C=C2\C(=O)Nc3ccccc32)[nH]c2c1CCCC2 [Example 199, 3-[2-(2-Oxo-1,2-dihydroindol-3-ylidenemethyl)-4,5,6,7-tetrahydro-1H-indol-3-yl]-propionamide] | – | –
5 | – | 0.16 | 3900 | 160 | CNC(=O)CCc1c(/C=C2\C(=O)Nc3ccccc32)[nH]c2c1CCCC2 [Example 201, N-Methyl-3-[2-(2-oxo-1,2-dihydroindol-3-ylidenemethyl)-4,5,6,7-tetrahydro-1H-indol-3-yl]-propionamide] | – | –
6 | 5770 | < 0.78 | > 50000 | – | COc1ccc2c(c1)/C(=C/c1[nH]cc(C)c1CCC(=O)O)C(=O)N2 [Example 222, 3-[2-(5-Methoxy-2-oxo-1,2-dihydroindol-3-ylidenemethyl)-4-methyl-1H-pyrrol-3-yl]-propionic acid] | – | –

Row | SMILES | IC50 [1] [nM] | IC50 [2] [µM] | IC50 [3, 5] [nM] | IC50 ([4]; aFGF-stimulated) [nM] | IC50 [3] [nM] | IC50 [4] [nM]
7 | Cc1c[nH]c(/C=C2\C(=O)Nc3ccccc32)c1CCC(=O)O [Example 215, 3-[4-Methyl-2-(2-oxo-1,2-dihydroindol-3-ylidenemethyl)-1H-pyrrol-3-yl]-propionic acid] | 5590 | – | – | – | 20000 | 1100
